Source: publication PMC6838323 (2019)

Legend:
Experiment in all cases: fluorescence (Cy3/DABCYL) titration, two-site fit
Conditions in all cases: 6 mM Mg2+; 10 mM Tris-HCl pH 7.5, 25 °C; 250 nM aptamer; apparent; ATP up to 6.75 mM
[1] = test system: 9_36 (DNA, aptamer) CACCTGGGGGAGTATTGCGGAGGAAGGTTTTTTTTTTTTTTTTTTCCCCAGGTG
[2] = test system: 9_23 (DNA, aptamer) CACCTGGGGGAGTATTGCGGAGGAAGGTTTTTCCCCAGGTG
[3] = test system: 7_33 (DNA, aptamer) CACCTGGGGGAGTATTGCGGAGGAAGGTTTTTTTTTTTTTCCAGGTG
[4] = test system: 6_23 (DNA, aptamer) CACCTGGGGGAGTATTGCGGAGGAAGGTTCAGGTG
[5] = test system: 9_33 (DNA, aptamer) CACCTGGGGGAGTATTGCGGAGGAAGGTTTTTTTTTTTTTTTCCCCAGGTG
[6] = test system: 7_36 (DNA, aptamer) CACCTGGGGGAGTATTGCGGAGGAAGGTTTTTTTTTTTTTTTTCCAGGTG
[7] = test system: 7_25 (DNA, aptamer) CACCTGGGGGAGTATTGCGGAGGAAGGTTTTTCCAGGTG
[8] = test system: 8_36 (DNA, aptamer) CACCTGGGGGAGTATTGCGGAGGAAGGTTTTTTTTTTTTTTTTTCCCAGGTG
[9] = test system: 9_43 (DNA, aptamer) CACCTGGGGGAGTATTGCGGAGGAAGGTTTTTTTTTTTTTTTTTTTTTTTTTCCCCAGGTG
[10] = test system: 7_43 (DNA, aptamer) CACCTGGGGGAGTATTGCGGAGGAAGGTTTTTTTTTTTTTTTTTTTTTTTCCAGGTG
[11] = test system: 7_23 (DNA, aptamer) CACCTGGGGGAGTATTGCGGAGGAAGGTTTCCAGGTG
[12] = test system: 8_25 (DNA, aptamer) CACCTGGGGGAGTATTGCGGAGGAAGGTTTTTTCCCAGGTG
[13] = test system: 8_33 (DNA, aptamer) CACCTGGGGGAGTATTGCGGAGGAAGGTTTTTTTTTTTTTTCCCAGGTG
[14] = test system: 6_33 (DNA, aptamer) CACCTGGGGGAGTATTGCGGAGGAAGGTTTTTTTTTTTTCAGGTG
[15] = test system: 6_36 (DNA, aptamer) CACCTGGGGGAGTATTGCGGAGGAAGGTTTTTTTTTTTTTTTCAGGTG
[16] = test system: 8_23 (DNA, aptamer) CACCTGGGGGAGTATTGCGGAGGAAGGTTTTCCCAGGTG
[17] = test system: 8_43 (DNA, aptamer) CACCTGGGGGAGTATTGCGGAGGAAGGTTTTTTTTTTTTTTTTTTTTTTTTCCCAGGTG
[18] = test system: 9_25 (DNA, aptamer) CACCTGGGGGAGTATTGCGGAGGAAGGTTTTTTTCCCCAGGTG
[19] = test system: 6_25 (DNA, aptamer) CACCTGGGGGAGTATTGCGGAGGAAGGTTTTCAGGTG

Nc1ncnc2c1ncn2[C@@H]1O[C@H](COP(=O)(O)OP(=O)(O)OP(=O)(O)O)[C@@H](O)[C@H]1O
KDeff [1]: 2.72 ± 1.47 mM | KDeff [2]: 39.0 ± 35.7 mM | KDeff [3]: 0.0985 ± 0.0481 mM | KDeff [4]: 0.0314 ± 0.0111 mM | KDeff [5]: 4.98 ± 0.53 mM | KDeff [6]: 0.0709 ± 0.0018 mM | KDeff [7]: 0.271 ± 0.038 mM | KDeff [8]: 0.352 ± 0.043 mM | KDeff [9]: 0.967 ± 0.085 mM | KDeff [10]: 0.0298 ± 0.0031 mM | KDeff [11]: 0.382 ± 0.034 mM | KDeff [12]: 2.29 ± 0.05 mM | KDeff [13]: 0.734 ± 0.01 mM | KDeff [14]: 0.0182 ± 0.0076 mM | KDeff [15]: 0.0107 ± 0.0019 mM | KDeff [16]: 3.58 ± 1.37 mM | KDeff [17]: 0.388 ± 0.124 mM | KDeff [18]: 12.8 ± 1.7 mM | KDeff [19]: 0.0262 ± 0.0095 mM
